Patent US20230139171A1 (SITA Information Networking Computing UK Limited, priority 2019, published 2023)

Tests used:
[1] = biological target: T1, human TLR8 (Homo sapiens, UniProt Q9NR97); assay: TLR8 inhibition reporter assay (HEK-Blue cells, SEAP reporter, R848 stimulation); type: cell-based; conditions: HEK-Blue cells overexpressing human TLR8, SEAP reporter, R848 15.9 μM; read-out: TLR8 IC50
T1 construct: host or cells: HEK-Blue cells
T1 sequence (Q9NR97 27-1041): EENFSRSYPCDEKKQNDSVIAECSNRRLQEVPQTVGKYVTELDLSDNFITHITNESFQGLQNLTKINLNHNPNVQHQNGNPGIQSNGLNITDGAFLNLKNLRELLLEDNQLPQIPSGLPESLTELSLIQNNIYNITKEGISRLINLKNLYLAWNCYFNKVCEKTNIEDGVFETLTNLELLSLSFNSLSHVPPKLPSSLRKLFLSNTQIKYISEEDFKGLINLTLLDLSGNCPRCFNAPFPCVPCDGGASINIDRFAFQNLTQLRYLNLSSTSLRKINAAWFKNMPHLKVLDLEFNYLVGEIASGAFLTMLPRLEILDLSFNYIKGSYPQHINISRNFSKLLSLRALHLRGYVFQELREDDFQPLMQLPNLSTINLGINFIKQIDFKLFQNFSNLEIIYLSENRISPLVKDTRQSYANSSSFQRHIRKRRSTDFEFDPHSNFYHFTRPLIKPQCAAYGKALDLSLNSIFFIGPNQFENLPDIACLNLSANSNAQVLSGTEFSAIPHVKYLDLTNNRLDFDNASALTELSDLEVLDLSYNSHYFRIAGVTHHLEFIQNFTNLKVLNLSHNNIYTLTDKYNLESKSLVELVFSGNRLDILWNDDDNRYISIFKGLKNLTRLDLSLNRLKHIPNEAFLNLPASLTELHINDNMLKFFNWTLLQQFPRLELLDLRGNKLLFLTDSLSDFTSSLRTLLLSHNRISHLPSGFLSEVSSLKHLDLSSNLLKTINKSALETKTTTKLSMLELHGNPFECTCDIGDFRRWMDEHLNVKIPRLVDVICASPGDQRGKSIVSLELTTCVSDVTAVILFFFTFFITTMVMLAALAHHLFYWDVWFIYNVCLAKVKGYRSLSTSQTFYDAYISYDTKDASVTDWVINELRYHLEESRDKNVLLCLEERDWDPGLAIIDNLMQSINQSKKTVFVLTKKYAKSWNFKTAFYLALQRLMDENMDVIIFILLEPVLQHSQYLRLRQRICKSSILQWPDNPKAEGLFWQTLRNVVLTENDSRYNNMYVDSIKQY
Summary of the method: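 Screening used HEK-Blue cells overexpressing one human TLR (7, 8 or 9) and an IFN-β minimal promoter–NF-κB/AP-1 SEAP construct. Stimulation lasted 22 h at 37 °C with receptor-specific agonist: gardiquimod, R848 or ODN2006 at 7.5 μM, 15.9 μM and 5 nM.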

[2] = test system: TLR7; assay: In vivo mouse TLR7 PD model (gardiquimod challenge, plasma IL-6 and IFN-alpha by ELISA); design: species or system C57BL/6 mice; conditions: oral
Procedure: In Vivo Mouse TLR7 PD Model:
Adult male C57BL/6 mice were used for the experiments. Mice (7 to 10 per group) were randomized into different treatment groups based on body weight. Mice from the respective treatment groups were administered orally with vehicle or test compound. Thirty min after the oral administration of vehicle or test compound, mice were challenged with intraperitoneal injection of gardiquimod for TLR7 PD model. Ninety minutes after gardiquimod injection, mice were bled under isoflurane anaesthesia and plasma IL-6 and IFN-alpha levels were estimated by using commercially available ELISA kit (BD Biosciences, PBL Life Sciences). At the end of experiment, mean cytokine data was plotted and one way ANOVA with Dunnett's test was performed to calculate the significance of test compound treated group vs. vehicle control group. Percent inhibition of cytokine induction was calculated for test compound treated group vs vehicle control group.

IC50 [1]: 1.37 nM
Structure (SMILES): COc1cc(-c2[nH]c3sc(C4CCC(NC5COC5)CC4)nc3c2C(C)C)cn2ncnc12 (single isomer, unassigned) [Example 65, N-(4-(6-isopropyl-5-(8-methoxy-[1,2,4]triazolo[1,5-a]pyridin-6-yl)-4H-pyrrolo[3,2-d]thiazol-2-yl)cyclohexyl)oxetan-3-amine]
% inhibition of IFN-alpha ([2]; dose 0.001 mg/kg): 50% | % inhibition of IL6 ([2]; dose 0.001 mg/kg): 21% | % inhibition of IFN-alpha ([2]; dose 0.005 mg/kg): 63% | % inhibition of IL6 ([2]; dose 0.005 mg/kg): 42% | % inhibition of IFN-alpha ([2]; dose 0.025 mg/kg): 97% | % inhibition of IL6 ([2]; dose 0.025 mg/kg): 78% | % inhibition of IFN-alpha ([2]; dose 0.050 mg/kg): 99% | % inhibition of IL6 ([2]; dose 0.050 mg/kg): 94%
